According to ChEMBL document CHEMBL3779777, “Novel amalgamation of phthalazine-quinolines as biofilm inhibitors: One-pot synthesis, biological evaluation and in silico ADME prediction with favorable metabolic fate” (Bioorg Med Chem Lett, 2016):
Converted amounts (≈) assume the structure as drawn. The source made the active and inactive calls. No cut-off for these calls is given here.

Tests used:
Candida albicans [1] = assay: Antifungal activity against Candida albicans NCIM-3471 by standard agar method; assay type: functional
Candida albicans [2] = assay: Antibiofilm activity against Candida albicans after 24 hrs by MTT assay; assay type: functional, organism-based
Pseudomonas aeruginosa [3] = assay: Antibacterial activity against Pseudomonas aeruginosa NCIM-2036 by standard agar method; assay type: functional
Staphylococcus aureus = assay: Antibacterial activity against Staphylococcus aureus NCIM-2901 by standard agar method; assay type: functional
Bacillus subtilis = assay: Antibacterial activity against Bacillus subtilis NCIM-2063 by standard agar method; assay type: functional
Pseudomonas aeruginosa [4] = assay: Antibiofilm activity against Pseudomonas aeruginosa PAO1 after 18 hrs by crystal violet staining based spectroscopy; assay type: functional, organism-based; settings: PAO1, 18 h
Pseudomonas aeruginosa [5] = assay: Antibiofilm activity against Pseudomonas aeruginosa assessed as inhibition of biofilm formation after […] by Field emission scanning electron microscopy; assay type: functional, organism-based
Candida albicans [6] = assay: Antibiofilm activity against Candida albicans assessed as inhibition of biofilm formation after […] by Field emission scanning electron microscopy; assay type: functional, organism-based

| SMILES | MIC (Candida albicans [1]) [µg/mL] | IC50 (Candida albicans [2]) [µM] | MIC (Pseudomonas aeruginosa [3]) [µg/mL] | MIC (Staphylococcus aureus) [µg/mL] | MIC (Bacillus subtilis) [µg/mL] | IC50 (Pseudomonas aeruginosa [4]) [µM] | inhibition (Pseudomonas aeruginosa [5]) | inhibition (Candida albicans [6]) |
| --- | --- | --- | --- | --- | --- | --- | --- | --- |
| Cc1cccc2cc(C3C4=C(CC(C)(C)CC4=O)n4c(=O)c5ccccc5c(=O)n43)c3nnnn3c12 (stereo not drawn) | 175 (≈ 366 µM) | 61.5 | 84.5 (≈ 177 µM) | 91.5 (≈ 191 µM) | 170 (≈ 355 µM) | 61.5 | – | – |
| Cc1ccc2c(c1)cc(C1C3=C(CC(C)(C)CC3=O)n3c(=O)c4ccccc4c(=O)n31)c1nnnn12 (stereo not drawn) | 67.5 (≈ 141 µM) | 70.5 | 67.5 (≈ 141 µM) | 225 (≈ 470 µM) | 158 (≈ 329 µM) | 64.5 | – | – |
| Cc1ccc2cc(C3C4=C(CC(C)(C)CC4=O)n4c(=O)c5ccccc5c(=O)n43)c(Cl)nc2c1 (stereo not drawn) | 112 (≈ 238 µM) | 49.5 | 185 (≈ 392 µM) | 70 (≈ 148 µM) | 87.5 (≈ 185 µM) | 51 | – | – |
| OC(Cn1cncn1)(Cn1cncn1)c1ccc(F)cc1F [FLUCONAZOLE] | 50 (≈ 163 µM) | 40 | – | – | – | – | – | – |
| Cc1ccc2cc(C3C4=C(CC(C)(C)CC4=O)n4c(=O)c5ccccc5c(=O)n43)c3nnnn3c2c1 (stereo not drawn) | 55 (≈ 115 µM) | 67.5 | 102 (≈ 213 µM) | 112 (≈ 234 µM) | 158 (≈ 329 µM) | 51 | – | – |
| COc1ccc2nc(Cl)c(C3C4=C(CC(C)(C)CC4=O)n4c(=O)c5ccccc5c(=O)n43)cc2c1 (stereo not drawn) | 55 (≈ 113 µM) | 36 | 205 (≈ 420 µM) | 77.5 (≈ 159 µM) | 57.5 (≈ 118 µM) | 73.5 | – | – |
| COc1ccc2cc(C3C4=C(CC(C)(C)CC4=O)n4c(=O)c5ccccc5c(=O)n43)c3nnnn3c2c1 (stereo not drawn) | 220 (≈ 445 µM) | 43.5 | 250 (≈ 506 µM) | 195 (≈ 394 µM) | 168 (≈ 340 µM) | 72 | – | – |
| Cc1ccc2nc(Cl)c(C3C4=C(CC(C)(C)CC4=O)n4c(=O)c5ccccc5c(=O)n43)cc2c1 (stereo not drawn) | 175 (≈ 371 µM) | 51 | 150 (≈ 318 µM) | 77.5 (≈ 164 µM) | 158 (≈ 334 µM) | 46.5 | – | – |
| Cc1cccc2cc(C3C4=C(CC(C)(C)CC4=O)n4c(=O)c5ccccc5c(=O)n43)c(Cl)nc12 (stereo not drawn) | 50 (≈ 106 µM) | 37.5 | 120 (≈ 254 µM) | 67.5 (≈ 143 µM) | 142 (≈ 302 µM) | 66 | – | – |
| CC1(C)CC(=O)C2=C(C1)n1c(=O)c3ccccc3c(=O)n1C2c1cc2ccccc2nc1Cl (stereo not drawn) | 125 (≈ 273 µM) | 79.5 | 45 (≈ 98.3 µM) | 178 (≈ 390 µM) | 148 (≈ 324 µM) | 30 | Active | – |
| O=C(O)c1cn(C2CC2)c2cc(N3CCNCC3)c(F)cc2c1=O [CIPROFLOXACIN] | – | – | 50 (≈ 151 µM) | – | – | 47 | – | – |
| COc1ccc2c(c1)cc(C1C3=C(CC(C)(C)CC3=O)n3c(=O)c4ccccc4c(=O)n31)c1nnnn12 (stereo not drawn) | 195 (≈ 394 µM) | 81 | 67.5 (≈ 136 µM) | 225 (≈ 455 µM) | 188 (≈ 379 µM) | 46.5 | – | – |
| COc1ccc2cc(C3C4=C(CC(C)(C)CC4=O)n4c(=O)c5ccccc5c(=O)n43)c(Cl)nc2c1 (stereo not drawn) | 57.5 (≈ 118 µM) | 34.5 | 110 (≈ 225 µM) | 102 (≈ 209 µM) | 98.5 (≈ 202 µM) | 58.5 | – | Active |
| CC1(C)CC(=O)C2=C(C1)n1c(=O)c3ccccc3c(=O)n1C2c1cc2ccccc2n2nnnc12 (stereo not drawn) | 112 (≈ 242 µM) | 49.5 | 68.5 (≈ 147 µM) | 85 (≈ 183 µM) | 100 (≈ 215 µM) | 66 | – | – |
